# Assay results published in BindingDB's records for doi:10.1016/j.bmcl.2010.08.118 (Roche Palo Alto, 2010).
# Assay: Inhibition of CCR5 by cell-cell fusion inhibition assay
row,IC50 [nM],Compound
1,137,"Cc1ncnc(C)c1C(=O)N1C[C@H]2CN(CCC(c3ccccc3)C3CCN(CC(F)F)CC3)C[C@H]2C1 (stereo partly drawn) [((3aR,6aS)-5-(3-(1-(2,2-difluoroethyl)piperidin-4-yl)-3-phenylpropyl)hexahydropyrrolo[3,4-c]pyrrol-2(1H)-yl)(4,6-dimethylpyrimidin-5-yl)methanone]"
2,744,"COC(=O)N1CCC(C(CCN2C[C@@H]3CN(C(=O)c4c(C)ncnc4C)C[C@@H]3C2)c2ccccc2)CC1 (stereo partly drawn) [methyl 4-(3-((3aR,6aS)-5-(4,6-dimethylpyrimidine-5-carbonyl)hexahydropyrrolo[3,4-c]pyrrol-2(1H)-yl)-1-phenylpropyl)piperidine-1-carboxylate]"
3,> 5000,"Cc1ncnc(C)c1C(=O)N1C[C@H]2CN(CCC(c3ccccc3)C3CN(C(=O)CC(C)C)C3)C[C@H]2C1 (stereo partly drawn) [1-(3-(3-((3aR,6aS)-5-(4,6-dimethylpyrimidine-5-carbonyl)hexahydropyrrolo[3,4-c]pyrrol-2(1H)-yl)-1-phenylpropyl)azetidin-1-yl)-3-methylbutan-1-one]"
4,> 5000,"Cc1ncnc(C)c1C(=O)N1C[C@H]2CN(CCC(c3ccccc3)C3CCN(C(=O)C(C)C)CC3)C[C@H]2C1 (stereo partly drawn) [1-(4-(3-((3aR,6aS)-5-(4,6-dimethylpyrimidine-5-carbonyl)hexahydropyrrolo[3,4-c]pyrrol-2(1H)-yl)-1-phenylpropyl)piperidin-1-yl)-2-methylpropan-1-one]"
5,2830,"Cc1ncnc(C)c1C(=O)N1C[C@H]2CN(CCC(c3ccccc3)C3CN(C(=O)C4CCCC4)C3)C[C@H]2C1 (stereo partly drawn) [((3aR,6aS)-5-(3-(1-(cyclopentanecarbonyl)azetidin-3-yl)-3-phenylpropyl)hexahydropyrrolo[3,4-c]pyrrol-2(1H)-yl)(4,6-dimethylpyrimidin-5-yl)methanone]"
6,34,"Cc1ncnc(C)c1C(=O)N1C[C@H]2CN(CCC(c3ccccc3)C3CCN(CC(F)(F)F)CC3)C[C@H]2C1 (stereo partly drawn) [(4,6-dimethylpyrimidin-5-yl)((3aR,6aS)-5-(3-phenyl-3-(1-(2,2,2-trifluoroethyl)piperidin-4-yl)propyl)hexahydropyrrolo[3,4-c]pyrrol-2(1H)-yl)methanone]"
7,> 5000,"CCC(=O)N1CCC(C(CCN2C[C@@H]3CN(C(=O)c4c(C)ncnc4C)C[C@@H]3C2)c2ccccc2)CC1 (stereo partly drawn) [1-(4-(3-((3aR,6aS)-5-(4,6-dimethylpyrimidine-5-carbonyl)hexahydropyrrolo[3,4-c]pyrrol-2(1H)-yl)-1-phenylpropyl)piperidin-1-yl)propan-1-one]"
8,> 5000,"Cc1ncnc(C)c1C(=O)N1C[C@H]2CN(CCC(c3ccccc3)C3CN(CC(F)(F)F)C3)C[C@H]2C1 (stereo partly drawn) [(4,6-dimethylpyrimidin-5-yl)((3aR,6aS)-5-(3-phenyl-3-(1-(2,2,2-trifluoroethyl)azetidin-3-yl)propyl)hexahydropyrrolo[3,4-c]pyrrol-2(1H)-yl)methanone]"

# The remaining lines, values behind:
row,Compound,IC50 [nM]
1,"Cc1ncnc(C)c1C(=O)N1C[C@H]2CN(CCC(c3ccccc3)C3CCN(C(=O)CC(C)C)CC3)C[C@H]2C1 (stereo partly drawn) [1-(4-(3-((3aR,6aS)-5-(4,6-dimethylpyrimidine-5-carbonyl)hexahydropyrrolo[3,4-c]pyrrol-2(1H)-yl)-1-phenylpropyl)piperidin-1-yl)-3-methylbutan-1-one]",2820
2,"Cc1ncnc(C)c1C(=O)N1C[C@H]2CN(CCC(c3cccc(F)c3)C3CN(S(=O)(=O)C4CC4)C3)C[C@H]2C1 (stereo partly drawn) [((3aR,6aS)-5-(3-(1-(cyclopropylsulfonyl)azetidin-3-yl)-3-(3-fluorophenyl)propyl)hexahydropyrrolo[3,4-c]pyrrol-2(1H)-yl)(4,6-dimethylpyrimidin-5-yl)methanone]",30
3,"Cc1ncnc(C)c1C(=O)N1C[C@H]2CN(CCC(c3cccc(F)c3)C3CCN(CC(F)F)CC3)C[C@H]2C1 (stereo partly drawn) [((3aR,6aS)-5-(3-(1-(2,2-difluoroethyl)piperidin-4-yl)-3-(3-fluorophenyl)propyl)hexahydropyrrolo[3,4-c]pyrrol-2(1H)-yl)(4,6-dimethylpyrimidin-5-yl)methanone]",11
4,"Cc1cc(=O)oc(C)c1C(=O)N1C[C@H]2CN(CCC(c3ccccc3)C3CCN(S(C)(=O)=O)CC3)C[C@H]2C1 (stereo partly drawn) [4,6-dimethyl-5-((3aR,6aS)-5-(3-(1-(methylsulfonyl)piperidin-4-yl)-3-phenylpropyl)octahydropyrrolo[3,4-c]pyrrole-2-carbonyl)-2H-pyran-2-one]",8
5,"Cc1ncnc(C)c1C(=O)N1C[C@H]2CN(CCC(c3ccccc3)C3CN(S(=O)(=O)C4CC4)C3)C[C@H]2C1 (stereo partly drawn) [((3aR,6aS)-5-(3-(1-(cyclopropylsulfonyl)azetidin-3-yl)-3-phenylpropyl)hexahydropyrrolo[3,4-c]pyrrol-2(1H)-yl)(4,6-dimethylpyrimidin-5-yl)methanone]",313
6,"Cc1ncnc(C)c1C(=O)N1C[C@H]2CN(CCC(c3cc(F)cc(F)c3)C3CN(S(=O)(=O)C4CC4)C3)C[C@H]2C1 (stereo partly drawn) [((3aR,6aS)-5-(3-(1-(cyclopropylsulfonyl)azetidin-3-yl)-3-(3,5-difluorophenyl)propyl)hexahydropyrrolo[3,4-c]pyrrol-2(1H)-yl)(4,6-dimethylpyrimidin-5-yl)methanone]",63
7,"Cc1ncnc(C)c1C(=O)N1C[C@H]2CN(CCC(c3ccccc3)C3CCN(S(=O)(=O)C(C)C)CC3)C[C@H]2C1 (stereo partly drawn) [(4,6-dimethylpyrimidin-5-yl)((3aR,6aS)-5-(3-(1-(isopropylsulfonyl)piperidin-4-yl)-3-phenylpropyl)hexahydropyrrolo[3,4-c]pyrrol-2(1H)-yl)methanone]",99
8,"Cc1ncnc(C)c1C(=O)N1C[C@H]2CN(CCC(c3ccccc3)C3CN(S(=O)(=O)C(C)C)C3)C[C@H]2C1 (stereo partly drawn) [(4,6-dimethylpyrimidin-5-yl)((3aR,6aS)-5-(3-(1-(isopropylsulfonyl)azetidin-3-yl)-3-phenylpropyl)hexahydropyrrolo[3,4-c]pyrrol-2(1H)-yl)methanone]",93
9,"Cc1ncnc(C)c1C(=O)N1C[C@H]2CN(CCC(c3ccccc3)C3CCN(C(=O)NC(C)C)CC3)C[C@H]2C1 (stereo partly drawn) [4-(3-((3aR,6aS)-5-(4,6-dimethylpyrimidine-5-carbonyl)hexahydropyrrolo[3,4-c]pyrrol-2(1H)-yl)-1-phenylpropyl)-N-isopropylpiperidine-1-carboxamide]",> 5000
